Values joined by “and” are separate entries in the source; they are usually repeats but may differ in a detail not shown here. Equal values may be shown once. Ends that are not written are not given here.
Key:
Assay type in all cases: in vivo, human
[1] = system: ICAM1; assay: Example 2: change in cytokine level in ocular fluid samples, ICAM1
Experimental: (§1) The primary objective was to determine the Maximum Tolerated Dose (MTD) of a peptide an amino acid sequence […] and the structure of Formula III (ONL1204) and select doses for further clinical studies. During the study, ocular fluid samples were also collected at the time of study drug injection and at the time of vitrectomy. These samples were used for pharmacokinetic and pharmacodynamic analyses.
(§2) Patients were enrolled in ascending dose groups. […] Safety visits were conducted one day post-injection and as deemed necessary by the examining Investigator (at least 1 visit every 3 days) until Visit 3. At Visit 3 (3+ days post-injection, in accordance with standard of care) patients underwent surgical repair of their retinal detachment with vitrectomy (with or without scleral buckling) and gas or oil tamponade. At the time of surgery, an undiluted vitreous sample was collected for pharmacokinetic and pharmacodynamics analyses, and an aqueous sample was collected for pharmacodynamic analysis. Additional safety visits were targeted for and generally conducted one day post-surgery, 7 days (±3 days) post-surgery, 14 (+4 days) days post-surgery, and Weeks 6, 9, 12 (±7 days each), and Week 24 (+14 days; study exit).

[2] = system: IL18; assay: Example 2: change in cytokine level in ocular fluid samples, IL18
Experimental: as §1, §2

[3] = system: MCP1; assay: Example 2: change in cytokine level in ocular fluid samples, MCP1
Experimental: as §1, §2

[4] = system: IL1RA; assay: Example 2: change in cytokine level in ocular fluid samples, IL1RA
Experimental: as §1, §2

[5] = system: patients having macular degeneration characterized by geographic atrophy (GA); assay: Example I: BCVA in GA patients after single intravitreal injection
[6] = system: patients with retinal detachment; assay: Example 2: safety, adverse event reporting
Experimental: as §1, §2
The following doses were evaluated: 25 microgram (ug) and 50 ug provided in vials with concentrations of 0.5 mg/mL and/or 2 mg/mL of Formula III. Therefore, a volume of 0.05 or 0.1 mL was injected into the study eye. Patient participation was approximately 24 weeks (6 months): a single injection treatment and 24 weeks of follow-up.
Planned determinations of dose limiting toxicity included consideration of the following events: • 1.

[7] = system: patients with retinal detachment; assay: Example 2: BCVA in retinal detachment patients, intravitreal injection followed by surgical repair; set-up: key to BCVA Snellen study eye: (HM) = hand motion; (CF) = counting fingers; details: for summary statistics for all patients, mean: doses 25 to 200 ug, baseline mean 1.86
Experimental: as §1, §2
Therefore, a volume of 0.05 or 0.1 mL was injected into the study eye. Patient participation was approximately 24 weeks (6 months): a single injection treatment and 24 weeks of follow-up.

[8] = dose 25 ug (Table 1), individual patients
[9] = dose 50 ug (Table 1), individual patients
[10] = dose 100 ug (Table 1), individual patients
[11] = dose 200 ug (Table 1), individual patient

With HHIYLGAVNYIY-NH2 [ONL1204] the “Percent Change (%) from time of administering ONL1204 to surgery, ICAM1” value (“Percent Change (%) from time … ICAM1” below) [1, 8] was −82.4% and −42.7% and −86.2%, the “Percent Change (%) from time … ICAM1” value [1, 9] was 64.0% and −100% and 0% and the “Percent Change (%) from time … ICAM1” value [1, 10] was −43.9% and 24.9% and 22.7%. For the same substance, the “Percent Change (%) from time … ICAM1” value [1, 11] was 0%, the “Percent Change (%) from time of administering ONL1204 to surgery, IL18” value (from here on “Percent Change (%) from time … IL18”) [2, 8] was −60.5% and −22.5% and −50.8% and the “Percent Change (%) from time … IL18” value [2, 9] was 0% (2×) and −100%. The “Percent Change (%) from time … IL18” value [2, 10] was −33.7% and 0% and 66.0%, the “Percent Change (%) from time … IL18” value [2, 11] was 0% and the “Percent Change (%) from time of administering ONL1204 to surgery, MCP1” value (from here on “Percent Change (%) from time … MCP1”) [3, 8] was −41.4% and −6.02% and −35.9%. The “Percent Change (%) from time … MCP1” value [3, 9] was −3.12% and −48.4% and 11.6%, the “Percent Change (%) from time … MCP1” value [3, 10] was −9.5% and 78.5% and 500% and the “Percent Change (%) from time … MCP1” value [3, 11] was −2.4%. For the same substance, the “change in cytokine levels (MCP 1, ICAM, IL IRA, and IL 18) from time of ONL1204 administration to surgery” value ([3]; mean over patients of Table 7) was “mean decrease”, the “Percent Change (%) from time of administering ONL1204 to surgery, IL1RA” value (from here on “Percent Change (%) from time … IL1RA”) [4, 8] was −51.0% and −57.4% and −99.3% and the “Percent Change (%) from time … IL1RA” value [4, 9] was −60.0% and −94.4% and −88.3%. For the same substance, the “Percent Change (%) from time … IL1RA” value [4, 10] was 8.5% and −46.1% and −65.2%, the “Percent Change (%) from time … IL1RA” value [4, 11] was −26.3% and the “change in best corrected visual acuity (BCVA)” value ([5]; compared to baseline BCVA, FIG. 1, 1 to 24 weeks post treatment) was “improvement in visual acuity was generally observed”. For the same substance, the “visual outcomes (e.g., visual acuity)” value ([5]; doses comprising 25 ug and 50 ug, single intravitreal injection) was “showed an improvement in visual outcomes”, the “patients who experienced adverse events” value ([6]; 4 patients receiving 25 ug and 4 patients receiving 50 ug) was 7 out of 8 and the “severity and relatedness of adverse events” value ([6]; 8 patients, 25 ug and 50 ug) was “Most were mild, and study procedure or surgery related”. For the same substance, the “total number of adverse events” value ([6]; 8 patients, 25 ug and 50 ug) was 20, the “summary statistics for all patients, mean” value (shortened to “summary statistics”) ([7]; Week 6, n 14) was 0.65 and the “summary statistics” value ([7]; Week 9, n 13) was 0.78. For the same substance, the “summary statistics” value ([7]; Week 24, n 13) was 0.56, the “visual outcomes, all patients receiving ONL1204” value ([7]; also with greater than 10 days of central vision loss, 3 to 7 days from administration to surgery, range of detachment heights and extents) was “improved visual outcomes were observed for all patients receiving ONL1204” and the “visual outcomes (e.g., visual acuity)” value ([7]; retinal detachment patients, doses comprising 25 ug and 50 ug, with surgery) was “showed an improvement in visual outcomes”. For the same substance, the “BCVA Snellen study eye” value ([7]; week 9, dose 100 ug, individual patients) was “HM”.
